# Data taken from patent US20240374550A1, “GINGERENONE A PRODRUGS AND METHODS OF USE” (The U.S.A., as Represented by the Secretary, Department of …, priority 2022, published 2024).
# “Also recorded” adds a separate entry of the source.
# Columns and labels:
# [1] = system: senescent WI-38 fibroblasts; assay: MTT cell viability assay, IR-induced senescent WI-38 fibroblasts; format: cell-based, human; details: for senolytic activity (ability to selectively decrease cell viability of senescent cells): 72 h, ginger components at 100 μM, 6-shogaol 3.6 μM, 8-shogaol 33 μM, 6-gingerol 20 μM; for senescent cell viability: D+Q (dasatinib 250 nM + quercetin 10 μM), gingerenone A 20 μM, 6-shogaol 72.4 nM
# Method: Cell culture and treatments: WI-38 human diploid fibroblasts (HDFs) were cultured in Dulbecco's modified Eagle's medium (DMEM) supplemented with 10% heat-inactivated fetal bovine serum (FBS), penicillin and streptomycin, and non-essential amino acids at 37° C. in a 5% CO2 incubator. HDFs were rendered senescent by exposure to 10 Gy of ionizing radiation (IR) and then cultured for an additional ten days. Proliferating and senescent WI-38 cells were seeded in triplicate overnight at 2×10^5 cells/well (in 6 well plates) to achieve ˜60% confluence by the next day. Cells were then treated with the extracts for times indicated. […]
# MTT cell viability: The MTT assay (Bio Vision Milpitas, CA) was carried out following the manufacturer's protocol. Briefly, the media was gently removed from each well and 50 μl of serum-free medium+50 μl of Solution A were added to each well. The plates were incubated at 37° C. for MTT reduction into formazan for 3 h. Next, 150 μl Solution B was added to each well and the plate was covered with foil and shaken at 600 rpm for 15 min. The absorbance was measured at 590 nm using Enspire, Perkin Elmer Multimode plate reader. […]
# WI-38 fibroblasts were rendered senescent by exposure to ionizing radiation (IR, 10 Gy) and cultured for an additional 10 days. […] Data represent the means and standard error from three biological replicates. The major components of ginger extract, namely 6-gingerol, 8-gingerol, 10-gingerol, 6-shogaol, 8-shogaol, gingerenone A, and zingerone, were screened for their ability to selectively decrease cell viability of senescent cells using the MTT assay (FIG. 10A).
# [2] = system: p53, Bcl-XL, cleaved caspase-3 in proliferating and senescent WI-38 fibroblasts; assay: Western blot protein analysis (p53, Bcl-XL, cleaved caspase-3); format: cell-based, human; details: 48 h, senescent cells
# Method: Protein analysis: Cells were lysed in RIPA lysis buffer (Pierce, ThermoFisher) containing protease and phosphatase inhibitors (Roche) and incubated on ice for 10 min. The lysates were then sonicated for 5 min and centrifuged for 10 min at 4° C. to remove the insoluble fraction. The remaining supernatant was the whole-cell lysate. Lysates were separated by SDS-polyacrylamide gel electrophoresis (SDS-PAGE) and transferred onto nitrocellulose membranes (Biorad). Incubations with primary antibodies recognizing p21, p53, Beta-Actin (ACTB) (Santa Cruz Biotechnology), as well as caspase-3 (Abcam) and Bcl-XL (Cell Signaling) were followed by incubations with the appropriate secondary antibodies conjugated with horseradish peroxidase (GE Healthcare). Signals were developed using Enhanced Chemiluminescence (ECL) and acquired by using the ChemiDoc MP Imaging System (BioRad).
# The effects of gingerenone A, 6-shogaol and D+Q on cytokines and chemokines that are known to be part of the senescence-associated secretory phenotype (SASP) were tested. WI-38 fibroblasts were rendered senescent by exposure to ionizing radiation (IR, 10 Gy) and cultured for an additional 10 days. Cells were then treated with gingerenone A (20 μM) and 6-shogaol (72.4 nM) and incubated for 24 h. CCL-2 (MCP-1) and IL-10 were measured using the Bio-plex (Multiplex); IL6 was measured using Quantikine IL-6 (R&D) (FIG. 12A). Data were normalized to cell number/total protein content. Data in graphs represent the means and standard error from three biological replicates. […] Ratios of cleaved pro-caspase 3 to total caspase 3, normalized to ACTB levels, are shown as relative to control proliferating cells. Cytokines (FIG. 13A) and chemokines (FIG. 13B) were measured using the V-plex panel (MSD) after treatment for 24 h with the indicated drugs. Relative secretion was measured as pg/ml vs control normalized on TE. Data in the graphs represent the means and standard error from three biological replicates.
# To determine whether gingerenone A and 6-shogaol might influence the apoptotic pathway, their effect on the levels of cleaved caspase-3 (pro-apoptotic marker), and Bcl-XL (anti-apoptotic protein) (FIG. 12B) was tested.
# [3] = system: SASP cytokines and chemokines secreted by senescent WI-38 fibroblasts; assay: Secreted protein analysis (ELISA, Luminex multiplex, V-PLEX) of SASP factors; format: cell-based, human; details: 24 h
# Method: Secreted protein analysis-ELISA, Luminex Multiplex and V-PLEX: Media was collected at the earliest timepoint (24 h after treatments) to avoid cell death that could interfere with the assay. The media was centrifuged at 1000×g for 5 min to remove debris. The secretion of IL-6 was measured by the Quantikine ELISA Kit (R&D systems) and the expression of pro-inflammatory cytokines and chemokines [IL-6, TNFα, CCL2 (MCP-1), IL-8, IFNß] was also assessed by multiplex assays (customized Luminex plate, R&D) according to the manufacturer's instructions. The V-PLEX Plus Proinflammatory Panel 1 Human Kit and the Chemokine Panel 1 preparation and detection were carried out following the manufacturer's protocol (Mesoscale Diagnostics) using >80% confluency of proliferating or senescent cells on 24-well plates. Briefly, different concentrations of standards and samples were added to the plates, and they were incubated for 2 h on a microplate shaker. The plates were washed, and the corresponding detection antibody mixture was added to each well and incubated for 1 h with shaking. The plates were washed twice then Read buffer was added to each well. The plates were read on the MESO Quickplex SQ 120 (MSD, Rockville, MD) and protein concentrations were determined using MSD Discovery workbench 4.0. The effects of gingerenone A, 6-shogaol and D+Q on cytokines and chemokines that are known to be part of the senescence-associated secretory phenotype (SASP) were tested. WI-38 fibroblasts were rendered senescent by exposure to ionizing radiation (IR, 10 Gy) and cultured for an additional 10 days. Cells were then treated with gingerenone A (20 μM) and 6-shogaol (72.4 nM) and incubated for 24 h. CCL-2 (MCP-1) and IL-10 were measured using the Bio-plex (Multiplex); IL6 was measured using Quantikine IL-6 (R&D) (FIG. 12A). Data were normalized to cell number/total protein content. Data in graphs represent the means and standard error from three biological replicates. […] Ratios of cleaved pro-caspase 3 to total caspase 3, normalized to ACTB levels, are shown as relative to control proliferating cells. Cytokines (FIG. 13A) and chemokines (FIG. 13B) were measured using the V-plex panel (MSD) after treatment for 24 h with the indicated drugs. Relative secretion was measured as pg/ml vs control normalized on TE. Data in the graphs represent the means and standard error from three biological replicates.
# [4] = system: proliferating WI-38 fibroblasts; assay: MTT cell viability assay, proliferating WI-38 fibroblasts; format: cell-based, human; details: 48 h; D+Q (dasatinib 250 nM + quercetin 10 μM), gingerenone A 20 μM, 6-shogaol 72.4 nM
# Method: Cell culture and treatments: WI-38 human diploid fibroblasts (HDFs) were cultured in Dulbecco's modified Eagle's medium (DMEM) supplemented with 10% heat-inactivated fetal bovine serum (FBS), penicillin and streptomycin, and non-essential amino acids at 37° C. in a 5% CO2 incubator. HDFs were rendered senescent by exposure to 10 Gy of ionizing radiation (IR) and then cultured for an additional ten days. Proliferating and senescent WI-38 cells were seeded in triplicate overnight at 2×10^5 cells/well (in 6 well plates) to achieve ˜60% confluence by the next day. Cells were then treated with the extracts for times indicated.
# In 24-well plates, cells were treated with multiple dilutions (1:200 and 1:500) of Harpagophytum procumbens (Devil's Claw) (herb to menstruum ratio, 1:3), Uncaria tomentosa (Cat's Claw) (herb to menstruum ratio, 1:3), Zingiber officinale Rosc. […]
# MTT cell viability: The MTT assay (Bio Vision Milpitas, CA) was carried out following the manufacturer's protocol. […] The absorbance was measured at 590 nm using Enspire, Perkin Elmer Multimode plate reader.
# Four plant extracts were screened for senolytic activity, including extracts from Harpagophytum procumbens (Devil's Claw), Uncaria tomentosa (Cat's Claw), Zingiber officinale Rosc. […] In FIG. 8B, the impact on ginger extract on proliferating and senescent cells on cell survival was assessed by the MTT cell viability assay. […]
# [5] = system: circulating cytokines/chemokines in serum; assay: Chronic administration, serum cytokines/chemokines; format: in vivo, C57BL/6JN mice; details: GinA 10 mg/kg/day, modGinA 27 mg/kg/day, 10 weeks
# Method: (§1) A chronic administration of GinA (10 mg/kg/day; 1.8 mg/mL) and modGinA (27 mg/kg/day, 4.8 mg/mL) or vehicle (high oleic sunflower oil) was carried out daily for 10 weeks in C57BL/6JN mice (79-80 weeks old). The serum was analyzed for circulating levels of cytokines/chemokines during treatment (9th week) and 10 days after cessation of drug administration. […] FIGS. 16A and 16B show circulating levels of IL-5 in serum during treatment (9 weeks; FIG. 16A) and after treatment (FIG. 16B) with daily oral administration of 10 mg/kg of GinA or 27 mg/kg of modGinA. IL-5 was significant in post treatment using the unadjusted Kruskal-Wallace test between the three groups (vehicle, GinA and modGinA) and unadjusted unpaired t-test between either group and vehicle and during treatment using unadjusted unpaired t-test in the modGinA treatment group.
# [6] = system: circulating metabolites and lipid species in serum; assay: Chronic administration, serum metabolomic and lipid analysis; format: in vivo, C57BL/6J male mice; details: daily oral GinA 10 mg/kg or modGinA 27 mg/kg, at 9 weeks, compared to vehicle
# Method: as §1
# Additionally, modGinA administration increased circulating levels of multiple DHA- and EPA-containing lipid species, including phospholipids and cholesterol esters during treatment.
# [7] = in vivo; details: male, C57BL/6J, mouse, po, 10 mg/kg
# Method: Gingerenone A Quantification: The analysis of Gingerenone A, EPA and DHA was accomplished using a Phenomencx® Security Guard® C18 column (4 x3 mm ID, Phenomenex, Torrance, CA) and a Waters™ Xbridge® C18 3.5 μm column (2.1 mm×100 mm, Waters Corporation, Milford, MA). The mobile phase consisted of 5 mM ammonium formate and 0.1% formic acid as component A and acetonitrile as component B. A linear gradient was run as follows: 0 min 10% B; 1 min 10% B, 5 min 90% B; 10 min 90% B; 10.1 min 10% B at a flow rate of 0.2 mL/min, with an oven temperature at 40° C. The total run time was 15 min per sample. […] For DHA, the TIS compound parameter settings (declustering potential, collision energy and cell exit potential) for MRM was −135 V, —14 V and −13 V and for naringenin MRM was −100 V, —24 V and −10 V, and MRM2 was −100V, —33 V and −10 V. The data were acquired and analyzed using Analyst version 1.4.2 (Applied Biosystems). The relative quantitation of gingerenone A, EPA and DHA was accomplished by using the area under the curves. […] For the quantitation of gingerenone A, a seven-point calibration curve (12.5 to 0.097 ng/ml) was carried out. […]
# The peak areas in circulating gingerenone A levels were measured as described above in the Methods section.
smiles,measurement,setting,value
COc1cc(CCC(C)=O)ccc1O [zingerone],senolytic activity (ability to selectively decrease cell viability of senescent cells),[1],only 6-shogaol and gingerenone A displayed senolytic activity
CCCCCCC[C@H](O)CC(=O)CCc1ccc(O)c(OC)c1 [8-gingerol],senolytic activity (ability to selectively decrease cell viability of senescent cells),[1],only 6-shogaol and gingerenone A displayed senolytic activity
CCCCCCCCC[C@H](O)CC(=O)CCc1ccc(O)c(OC)c1 [10-gingerol],senolytic activity (ability to selectively decrease cell viability of senescent cells),[1],only 6-shogaol and gingerenone A displayed senolytic activity
CCCCC[C@H](O)CC(=O)CCc1ccc(O)c(OC)c1 [6-gingerol],senolytic activity (ability to selectively decrease cell viability of senescent cells),[1],only 6-shogaol and gingerenone A displayed senolytic activity
CCCCC/C=C/C(=O)CCc1ccc(O)c(OC)c1 [6-shogaol],expression of anti-apoptotic protein Bcl-XL,[2],reduced
same,levels of pro-apoptotic protein cleaved caspase-3,[2],increase
same,senescent cell viability,[1]; 48 h,moderate degree of cell death
same,senolytic activity (ability to selectively decrease cell viability of senescent cells),[1],displayed senolytic activity
same,changes in any of the cytokines and chemokines measured,[3]; 72.4 nM,did not induce major changes
same,effect on proliferating cells,[4],significant increase
CCCCCCC/C=C/C(=O)CCc1ccc(O)c(OC)c1 [8-shogaol],senolytic activity (ability to selectively decrease cell viability of senescent cells),[1],only 6-shogaol and gingerenone A displayed senolytic activity
"COc1cc(CC/C=C/C(=O)CCc2ccc(O)c(OC)c2)ccc1O [gingerenone A, Gingerenone A]",expression of anti-apoptotic protein Bcl-XL,[2],reduced
same,levels of pro-apoptotic protein cleaved caspase-3,[2],increase
same,serum IL-5,"[5]; post treatment, unadjusted unpaired t-test vs vehicle",reduced
same,serum IL-2,[5]; ten days after termination,reduced
same,serum concentration of beta-alanine,[6],did not increase
same,serum concentration of choline,[6],did not increase
same,AUC,[7],1.25 ng·h/mL
same,senescent cell viability relative to proliferating cells,"[1]; 20 μM, 48 h, p=0.04",significant decrease; also recorded: significantly decreased
same,selectivity for senescent over proliferating cells,"[1]; 48 h, 20 μM, compared to D+Q",higher selectivity
same,senescent cell viability,[1]; 48 h,significantly decreased
same,senolytic activity (ability to selectively decrease cell viability of senescent cells),[1],displayed senolytic activity
same,level of IL-1β,[3]; 20 μM,increased
same,level of IL-13,[3]; 20 μM,increased
same,level of IL-10,"[3]; 20 μM, multiplex ELISA (FIG. 12A)",increased
same,level of IL-10,[3]; V-Plex (FIG. 13A),unchanged
same,level of IL-8,"[3]; gingerenone A 20 μM, D+Q",increased
same,secreted level of CCL2 (MCP-1),"[3]; gingerenone A 20 μM, D+Q",reduced
same,secreted level of IL-6,"[3]; gingerenone A 20 μM, D+Q",reduced
same,secreted level of IP-10,"[3]; gingerenone A 20 μM, D+Q, V-plex",reduced
same,effect on proliferating cells,[4],did not show any significant effect
